# Laboratory results from patent US20250002435A1, “ARYLATED FENCHONE DERIVATIVES, COMPOSITIONS COMPRISING THEM, PROCESSES FOR THEIR PREPARATION AND USES THEREOF” (priority 2021, published 2025).
# Values joined by “and” are separate entries in the source; they are usually repeats but may differ in a detail not shown here. Equal values may be shown once.
# What was measured:
# hCB2R [1] = target: T1, hCB2R (Homo sapiens (Human), UniProt P34972); test: [35S]GTPγS binding assay, hCB2R CHO cell membranes; type: biochemical; settings: for functional activity at hCB2R (agonist / inverse agonist): [35S]GTPγS binding
# T1 sequence (P34972 whole entry): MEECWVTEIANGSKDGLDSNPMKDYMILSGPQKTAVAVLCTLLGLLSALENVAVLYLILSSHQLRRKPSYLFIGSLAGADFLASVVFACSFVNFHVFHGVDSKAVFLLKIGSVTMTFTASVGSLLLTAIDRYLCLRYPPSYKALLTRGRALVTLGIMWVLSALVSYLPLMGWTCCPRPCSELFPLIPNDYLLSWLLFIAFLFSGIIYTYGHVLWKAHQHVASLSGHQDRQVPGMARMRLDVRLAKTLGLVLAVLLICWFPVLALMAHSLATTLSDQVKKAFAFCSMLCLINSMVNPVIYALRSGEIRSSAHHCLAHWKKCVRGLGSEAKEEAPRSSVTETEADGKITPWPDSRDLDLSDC
# Description: Functional Characterization.
# The method used for measuring agonist-stimulated binding of [^35S]GTPγS was based on a described protocol. The assays were carried out with GTPγS assay buffer (50 mM Tris HCl (pH 7.4), 0.2 mM EGTA, 9 mM MgCl2, 150 mM NaCl, 1 mg/ml BSA). Briefly, membranes (5 μg protein) were incubated in assay buffer containing 100 μM GDP, 0.05 nM [^35S]GTPγS, test compounds at various concentrations in siliconized glass tubes. Bound ligand was separated from free ligand by vacuum filtration. Nonspecific binding was determined using 10 μM GTPS. Basal binding was assayed in the absence of the ligand and in the presence of GDP.
# [2] = system: zymosan-induced hyperalgesia; test: von Frey nociceptive filament assay after zymosan (5b, 5d, CBD); type: in vivo, mouse
# Description: (§1) Cannabidiol (CBD), a major constituent of Cannabis, resembles fenchone derivatives in structure. It has powerful anti-inflammatory and anti-anxiety properties and therefore it is used as a positive control. […] In accordance with these findings, the anti-nociceptive effect, as determined by the von Frey monofilament assay peaked at 6 h (p<0.01) (FIG. 10C).
# (§2) To induce inflammation, 40 μL of 1.5% (w/v) zymosan A (Sigma) suspended in 0.9% saline was injected into the sub-planter surface of the right hind paw of the mice. Immediately after zymosan injection, fenchone derivative was injected intraperitoneally (i.p.) after the compounds were dissolved in 0.1 mL vehicle containing ethanol:Cremophore:saline at a ratio of 1:1:18. Control mice were injected with the vehicle only. After 2, 6 and 24 hrs, paw swelling and pain perception were measured.
# (§3) The hyperalgesia was evaluated by the paw withdrawal von Frey test at 2, 6, and 24 hrs following injections of zymosan and/or the test compounds. […] In this study, only 1.4-60 g corresponding to 4.17 to 5.88 log of force was used, to test the mouse sensitivity to a mechanical stimulus on the swollen paw. The measurements were performed in a quiet room. Before paw pain measurements, the animals were held for 10 sec. The trained investigator applied the filament to the central area of the hind paw with gradual increasing size. The test consisted of poking the middle of the hind paw to provoke a flexion reflex followed by a clear flinch response after paw withdrawal. Each one of the von Frey filaments was applied for approximately 3-4 s to induce the end-point reflex. The first testing was done by using the force filament of 1.4 g. If there was no withdrawal response, the next higher stimulus was tried. The mechanical threshold force (in grams (g)) was defined as the lowest force imposed by two von Frey monofilaments of various sizes, required to produce a paw retraction. The untreated left hind paw served as a control.
# [3] = system: zymosan-induced paw swelling; test: zymosan mouse paw inflammatory pain model, paw swelling, with or without CB2 antagonists; type: in vivo; settings: 10 mg/kg AM630 with 1D, 24 h
# Description: (§4) To induce inflammation, 40 μL of 1.5% (w/v) zymosan A (Sigma) suspended in 0.9% saline was injected into the sub-planter surface of the right hind paw of the mice. Immediately after zymosan injection, antagonists were injected intraperitoneally (IP) and after 30 minutes, the fenchone derivatives dissolved in 0.1 mL vehicle containing ethanol:Cremophore:saline at a ratio of 1:1:18 were injected. Control mice were injected with the vehicle only. After 2, 6, and 24 hrs, paw swelling, and pain perception were measured.
# as §3, with “Specifically, measurement of Oedema Formation was assessed by monitoring paw swelling via calibrated calipers (0.01 mm), 6 and 24 hrs following injections of zymosan alone and/or the test compounds. Pain hyperalgesia” for “The hyperalgesia”, “at” for “at 2,”, “24 h” for “24 hrs”
# [4] = system: zymosan-induced hyperalgesia; test: zymosan mouse paw inflammatory pain model, von Frey test, with or without CB2 antagonists; type: in vivo; settings: addition of AM630, 24 h
# Description: as §4
# as §3, with “Specifically, measurement of Oedema Formation was assessed by monitoring paw swelling via calibrated calipers (0.01 mm), 6 and 24 hrs following injections of zymosan alone and/or the test compounds. Pain hyperalgesia” for “The hyperalgesia”, “at” for “at 2,”, “24 h” for “24 hrs”
# TNFα = test: serum TNFα ELISA 24 h after zymosan injection; type: in vivo, mouse; settings: AM630 added to 1D
# Description: Blood was collected 24 h after zymosan injection, and the sera were assayed for TNFα using a mouse TNFα ELISA kit (R&D Systems, Minneapolis, MN, USA), according to the manufacturer's instructions.
# [5] = system: zymosan-induced swelling of hind paw; test: zymosan-induced hind paw swelling in mice (5b, 5d, CBD); type: in vivo, mouse
# Description: as §1, §2
# The paw swelling (thickness) was measured by calibrated calipers (0.01 mm), 2, 6 and 24 hrs following injections of zymosan alone or Fenchone derivatives.
# mCB1R = mCB1R (Mus musculus (Mouse), UniProt P47746); test: [3H]CP-55,940 competition displacement binding, crude membranes from mouse brain; settings: displacement of [3H]CP-55,940; NB = No binding detected at concentrations up to 10 μM; read-out: Ki (nM) mCB1R
# mCB1R, sequence (P47746 whole entry): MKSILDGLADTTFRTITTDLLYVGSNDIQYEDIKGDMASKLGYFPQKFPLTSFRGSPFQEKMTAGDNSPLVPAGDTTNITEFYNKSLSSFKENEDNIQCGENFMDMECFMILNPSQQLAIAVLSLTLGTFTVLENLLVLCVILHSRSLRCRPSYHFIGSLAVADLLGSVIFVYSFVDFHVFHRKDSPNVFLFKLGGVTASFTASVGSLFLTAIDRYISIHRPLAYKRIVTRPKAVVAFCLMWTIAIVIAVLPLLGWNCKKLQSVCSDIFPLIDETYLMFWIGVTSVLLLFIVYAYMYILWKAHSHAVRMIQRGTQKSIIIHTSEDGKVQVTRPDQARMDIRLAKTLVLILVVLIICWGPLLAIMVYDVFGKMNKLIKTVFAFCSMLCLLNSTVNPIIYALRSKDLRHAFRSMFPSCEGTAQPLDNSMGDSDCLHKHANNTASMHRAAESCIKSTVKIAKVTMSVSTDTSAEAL
# Description: (§5) Affinity for Cannabinoid Receptors. The compounds were further characterized using a radioligand binding assay to determine their affinities for CB1R and CB2R based on each test compound's ability to displace the radiolabeled CB1R/CB2R agonist CP-55,940 from membranes prepared from a mouse brain (a source of CB1R) and membranes of cells expressing the human CB2R. […] Therefore, the compounds were assayed using membranes from CHO-K1 cells expressing the human CB2R (hCB2R).
# (§6) Membranes from cells expressing human CB2R were purchased from Charles River, (Cat #A308; Ohio, US). Solutions of test compounds ranging from 0.1 nM to 10 mM were prepared in DMSO. The desired amount of membrane preparation was diluted with ice-cold assay buffer (50 mM Tris-HCl, 2.5 mM EDTA, 5 mM MgCl2, 0.1% BSA, pH 7.4) and was vortexed. […] The assays were incubated for 90 minutes at 30° C. and then immediately filtered on WHATMAN GF/B FilterPaper (Fired) using a Brandel M-24R Harvester followed by six washes with ice cold wash buffer (50 mM Tris-HCl, 2.5 mM EDTA, 5 mM MgCl2, 0.1% BSA, pH 7.4). Radioactivity was detected by adding the FilterPaper directly to the ULTIMA GOLD scintillation cocktail (PerkinElmer), incubation at 20° C. for 60 min and then counted using a Tri-Carb 4910TR liquid scintillation counter.
# hCB2R [6] = target: T1, hCB2R; test: [3H]CP-55,940 competition displacement binding, membranes of CHO-K1 cells expressing human CB2R
# Description: as §5, §6
# [7] = system: medial meniscal tear (MMT) post-traumatic OA; test: rat medial meniscal tear (MMT) model, body weight and dynamic weight bearing; type: in vivo; settings: FGF18 60 μg/mL IA
# Description: Initially, the required amount of HU308 dissolved in ethanol followed by addition of […] with vigorous mechanical agitation to form viscous micelle solution. Finally, the micelle solution was diluted in ice cold saline for injection or culture assays. Vehicle solution consisted of ethanol, cremophor and saline at 1:1:18 ratio. For intra-articular (IA) dosing 50 μL was injected into the tibiofemoral joint, at two doses; 8 and 24 μg/mL. Vehicle control contained 1:1:18 ethanol/Cremophor/saline, while positive control was of IA administered 60 μg/mL FGF-18 (R&D Systems, catalogue No. 8988-F18-050, lot No. BVE0521071) for IA dosing at 50 μL/knee.
# (§7) The rat OA model employed was surgically-induced medial meniscal tear (MMT), wherein rats were anesthetized with Isoflurane (VetOne, catalogue No. 502017), and the right knee area was prepared for surgery. A skin incision was made over the medial aspect of the knee, and the medial collateral ligament was exposed by blunt dissection and then transected. The medial meniscus was cut through the full thickness to simulate a complete tear. Skin and subcutis were closed with 4-0 Coated Vicryl (polyglactin 910) Violet Braided Suture (Ethicon, catalogue No. J399H), and slight hand pressure was applied to the wound for approximately 3 minutes for hemostasis. Subcutaneous (SC) dose of buprenorphine (0.05 mg/kg) administered after the animal awakened post-surgery. Rats were weighed daily on study days −1 through 7 and again on days 14, 21, and 28 (prior to necropsy). […] The animals were euthanized for necropsy 28 days post-surgery, following Isoflurane anesthesia, and bled to exsanguination followed by bilateral pneumothorax.
# [8] = system: medial meniscal tear (MMT) post-traumatic OA; test: rat MMT model, histopathology of medial tibial joint 28 days post MMT; type: in vivo; settings: FGF18 60 μg/mL IA
# Description: as §7
# Right knees were collected from all animals and trimmed of muscle and patellae. The trimmed joints were placed in 10% neutral buffered formalin (NBF) for histologic processing and evaluation. Samples were fixed for 3 days in 4% paraformaldehyde and decalcified for 21 days in 10% EDTA, pH=7.5. Then following dehydration in a graded series of ethanol washes, joints were embedded in paraffin and sectioned to 7 μm slices, following trimming off 1 mm until the tibiofemoral compartments are fully observed. Sections were obtained from each knee and stained with toluidine blue (0.04% in 0.2 M acetate buffer, Ph=4.0), based on a modified version of the methods used in Schmitz, et al. (2010), (11). Histopathology was carried out using an ocular micrometer. The following structural histological characterization was carried out:
# Regional differences across the tibial plateau were taken into consideration by dividing each section into three zones: (1) outside, (2) middle, and (3) inside. In the surgical OA model, the outside (zone-1) and middle (zone-2) thirds are most severely affected, and milder changes are present on the inside third (zone 3). When zones were scored individually, scores were assigned based on percent area of the zone affected. General cartilage degeneration including chondrocyte death/loss, proteoglycan (PG) loss, and collagen loss or fibrillation. Zones were scored individually (0-5; 5 representing sever damage; SD3), and a sum of all three zones was calculated (termed “Total Joint scores”).
# The zone related cartilage depth is calculated from the projected articular surface tot the tidemark. Reduced ratios embody less detected cartilage width vs projected cartilage with area, per zone.
# Osteophyte thickness (tidemark to furthest point extending toward synovium) was measured and scored according to a range from 0-5, as in SD4.
# Damage to the calcified cartilage layer and subchondral bone was scored using the criteria in SD5. Generally damage was considered as invagination of deep zone cartilage into the subchondral bone layer.
# […] Descriptions of other changes (typically fibrosis, or acute inflammation/neutrophil infiltration extending into the lateral compartment usually associated with IA treatments) were also provided, if present.
compound,measurement,setting,value
"CCCCCc1cc(O)c(C2(O)C3(C)CCC(C3)C2(C)C)c(OC)c1 (single isomer, unassigned) [Compound 5b, 2-(2′-hydroxy-6′-methoxy-4′-pentylphenyl)-1,3,3-trimethylbicyclo[2.2.1]heptan-2-ol]",functional activity at hCB2R (agonist / inverse agonist),hCB2R [1],agonist
same,anti-nociceptive effect (von Frey),"[2]; 10 and 25 mg/kg ip, after 6 and 24 h",strong anti-nociceptive effects
"COc1ccc(C(=O)c2c(C)n(CCN3CCOCC3)c3cc(I)ccc23)cc1 [AM630, reference compound]",effect of antagonist on the 1D-reduced swelling,[3],fully inhibited its effect
same,effect of antagonist on the 1D von Frey effect,[4],reversed
same,effect of antagonist on the 1D reduction of TNF-α,TNFα,abolished
"C=C(C)[C@@H]1CCC(C)=C[C@H]1c1c(O)cc(CCCCC)cc1O [CBD, Cannabidiol, reference compound]",inhibition of inflammation (paw swelling),"[5]; 5 mg/kg ip, 6 h, FIG. 10A",40%
same,inhibition of inflammation (paw swelling),"[5]; 5 mg/kg ip, 24 h, FIG. 10A",43%
same,inhibition of inflammation (paw swelling),"[5]; positive control in the 5d experiment (FIG. 10B), 6 h",58%
same,inhibition of inflammation (paw swelling),"[5]; positive control in the 5d experiment (FIG. 10B), 24 h",78%
same,time at which the anti-nociceptive effect peaked (von Frey),[2]; CBD positive control,6 h
"CCCCCCC(C)(C)c1cc(O)c(C2(O)C3(C)CCC(C3)C2(C)C)c(OC)c1 (stereo not shown) [Compound 5d, 2-(2′-hydroxy-6′-methoxy-4′-(2″-methyloctan-2″-yl)phenyl)-1,3,3-trimethyl-bicyclo[2.2.1]heptan-2-ol]",Ki,mCB1R,451 nM
same,Ki,"hCB2R [6]; displacement of [3H]CP-55,940",24.6 nM
same,mCB1R/hCB2R,hCB2R [6]; selectivity index from Ki values,18.4
same,functional activity at hCB2R (agonist / inverse agonist),hCB2R [1],agonist
same,EC50,"hCB2R [1]; [35S]GTPγS binding to hCB2R, two independent experiments in triplicate",14.8 nM
same,E(max) %,hCB2R [1]; percentage of HU-308 response at 1 μM,105.05%
same,inhibition of inflammation (paw swelling),"[5]; 25 mg/kg ip, 24 h",55% and 56%
same,inhibition of inflammation (paw swelling),"[5]; 50 mg/kg ip, 2 h",38%
same,inhibition of inflammation (paw swelling),"[5]; 50 mg/kg ip, 6 h",67%
same,inhibition of inflammation (paw swelling),"[5]; 50 mg/kg ip, 24 h",56%
same,anti-nociceptive effect (von Frey),"[2]; 25 and 50 mg/kg ip, after 6 h",moderate anti-nociceptive effects
"FGF18: positive control, IA administered 60 μg/mL FGF-18 (R&D Systems); anabolic effect to articular cartilage",cumulative area under the curves for dynamic weight bearing (DWB),[7],highest values
same,mean zonal depth ratios,[8],reduced depth ratios
same,zone 3 cartilage degeneration score,[8],no beneficial effect
same,total zonal cartilage degeneration scores,[8]; vs 1D low dose and Vehicle,significantly reduced degenerative scores
same,medial synovial scores,[8]; vs all groups,highest
same,osteophyte measurements and scores,[8]; vs all groups,significantly higher measurements and scores
same,bone damage,[8]; vs the 1D high dose,relatively reduced levels
